Measured values: patent US6552080B1, “Fungicidal compounds having a fluorovinyl-or fluoropropenyl-oxyphenyloxime moiety and process for the preparation thereof” (Korea Research Institute of Chemical Technology, priority 1999, dated 2003)

tested on: Botrytis cinerae; assay: Fungicidal activity against Cucumber Gray Mold Rot (CGM) disease; type: in vivo; conditions: Cucumber Gray Mold Rot; concentration 50 ppm

Compound	CGM (Fungicidal Activities, C.V.)
COC=C(C(=O)OC)c1ccccc1CON=Cc1cccc(OC(F)=C(c2ccc(C)cc2)C(F)(F)F)c1 [Compound 105]	0%
CNC(=O)C(=COC)c1ccccc1CON=C(C)c1cccc(OC(F)=Cc2ccc(OC)cc2)c1 [Compound 60]	8%
COC=C(C(=O)OC)c1ccccc1CON=C(C)c1cccc(OC(F)=Cc2ccc(Cl)c(C)c2)c1 [Compound 52]	52%
CO/N=C(/C(=O)OC)c1ccccc1CON=C(C)c1cccc(OC(F)=Cc2ccccc2)c1 [Compound 64]	75%
CCOc1ccc(C(=C(F)Oc2cccc(C=NOCc3ccccc3C(=NOC)C(=O)NC)c2)C(F)(F)F)cc1 [Compound 144]	0%
CCc1ccc(C(=C(F)Oc2cccc(C(C)=NOCc3ccccc3C(=COC)C(=O)OC)c2)C(F)(F)F)cc1 [Compound 155]	52%
CON=C(C(=O)OC)c1ccccc1CON=C(c1cccc(OC(F)=Cc2ccccc2)c1)C(F)(F)F [Compound 102]	23%
CON=C(C(=O)OC)c1ccccc1CON=C(C)c1cccc(OC(F)=Cc2ccc(C)cc2)c1 [Compound 66]	75%

tested on: Rhizoctonia solani AG-1; assay: Fungicidal activity against Rice Sheath Blight (RSB) disease; conditions: Rice Sheath Blight; concentration 2 ppm

Compound	RSB (Fungicidal Activities, C.V.)
CO/N=C(/C(=O)OC)c1ccccc1CON=C(C)c1cccc(OC(F)=Cc2ccccc2)c1 [Compound 64]	45%
CON=C(C(=O)OC)c1ccccc1CON=C(C)c1cccc(OC(F)=Cc2ccc(C)cc2)c1 [Compound 66]	20%

same assay, conditions: Rice Sheath Blight; concentration 10 ppm

Compound	RSB (Fungicidal Activities, C.V.)
CO/N=C(/C(=O)OC)c1ccccc1CON=C(C)c1cccc(OC(F)=Cc2ccccc2)c1 [Compound 64]	65%
CON=C(C(=O)OC)c1ccccc1CON=C(C)c1cccc(OC(F)=Cc2ccc(C)cc2)c1 [Compound 66]	65%

same assay, conditions: Rice Sheath Blight; concentration 50 ppm

Compound	RSB (Fungicidal Activities, C.V.)
COC=C(C(=O)OC)c1ccccc1CON=Cc1cccc(OC(F)=C(c2ccc(C)cc2)C(F)(F)F)c1 [Compound 105]	20%
CNC(=O)C(=COC)c1ccccc1CON=C(C)c1cccc(OC(F)=Cc2ccc(OC)cc2)c1 [Compound 60]	29%
COC=C(C(=O)OC)c1ccccc1CON=C(C)c1cccc(OC(F)=Cc2ccc(Cl)c(C)c2)c1 [Compound 52]	65%
CO/N=C(/C(=O)OC)c1ccccc1CON=C(C)c1cccc(OC(F)=Cc2ccccc2)c1 [Compound 64]	85%
CCOc1ccc(C(=C(F)Oc2cccc(C=NOCc3ccccc3C(=NOC)C(=O)NC)c2)C(F)(F)F)cc1 [Compound 144]	47%
CCc1ccc(C(=C(F)Oc2cccc(C(C)=NOCc3ccccc3C(=COC)C(=O)OC)c2)C(F)(F)F)cc1 [Compound 155]	60%
CON=C(C(=O)OC)c1ccccc1CON=C(c1cccc(OC(F)=Cc2ccccc2)c1)C(F)(F)F [Compound 102]	50%
CON=C(C(=O)OC)c1ccccc1CON=C(C)c1cccc(OC(F)=Cc2ccc(C)cc2)c1 [Compound 66]	100%

tested on: Puccinia recondita; assay: Fungicidal activity against Wheat Leaf Rust (WLR) disease; type: in vivo; conditions: Wheat Leaf Rust; concentration 2 ppm

Compound	WLR (Fungicidal Activities, C.V.)
COC=C(C(=O)OC)c1ccccc1CON=Cc1cccc(OC(F)=C(c2ccc(C)cc2)C(F)(F)F)c1 [Compound 105]	86%
CO/N=C(/C(=O)OC)c1ccccc1CON=C(C)c1cccc(OC(F)=Cc2ccccc2)c1 [Compound 64]	99%
CCc1ccc(C(=C(F)Oc2cccc(C(C)=NOCc3ccccc3C(=COC)C(=O)OC)c2)C(F)(F)F)cc1 [Compound 155]	83%
CON=C(C(=O)OC)c1ccccc1CON=C(c1cccc(OC(F)=Cc2ccccc2)c1)C(F)(F)F [Compound 102]	94%
CON=C(C(=O)OC)c1ccccc1CON=C(C)c1cccc(OC(F)=Cc2ccc(C)cc2)c1 [Compound 66]	99%

same assay, conditions: Wheat Leaf Rust; concentration 10 ppm

Compound	WLR (Fungicidal Activities, C.V.)
COC=C(C(=O)OC)c1ccccc1CON=Cc1cccc(OC(F)=C(c2ccc(C)cc2)C(F)(F)F)c1 [Compound 105]	98%
COC=C(C(=O)OC)c1ccccc1CON=C(C)c1cccc(OC(F)=Cc2ccc(Cl)c(C)c2)c1 [Compound 52]	96%
CO/N=C(/C(=O)OC)c1ccccc1CON=C(C)c1cccc(OC(F)=Cc2ccccc2)c1 [Compound 64]	100%
CCc1ccc(C(=C(F)Oc2cccc(C(C)=NOCc3ccccc3C(=COC)C(=O)OC)c2)C(F)(F)F)cc1 [Compound 155]	99%
CON=C(C(=O)OC)c1ccccc1CON=C(c1cccc(OC(F)=Cc2ccccc2)c1)C(F)(F)F [Compound 102]	96%
CON=C(C(=O)OC)c1ccccc1CON=C(C)c1cccc(OC(F)=Cc2ccc(C)cc2)c1 [Compound 66]	100%

same assay, conditions: Wheat Leaf Rust; concentration 50 ppm

Compound	WLR (Fungicidal Activities, C.V.)
COC=C(C(=O)OC)c1ccccc1CON=Cc1cccc(OC(F)=C(c2ccc(C)cc2)C(F)(F)F)c1 [Compound 105]	100%
CNC(=O)C(=COC)c1ccccc1CON=C(C)c1cccc(OC(F)=Cc2ccc(OC)cc2)c1 [Compound 60]	66%
COC=C(C(=O)OC)c1ccccc1CON=C(C)c1cccc(OC(F)=Cc2ccc(Cl)c(C)c2)c1 [Compound 52]	100%
CO/N=C(/C(=O)OC)c1ccccc1CON=C(C)c1cccc(OC(F)=Cc2ccccc2)c1 [Compound 64]	100%
CCOc1ccc(C(=C(F)Oc2cccc(C=NOCc3ccccc3C(=NOC)C(=O)NC)c2)C(F)(F)F)cc1 [Compound 144]	86%
CCc1ccc(C(=C(F)Oc2cccc(C(C)=NOCc3ccccc3C(=COC)C(=O)OC)c2)C(F)(F)F)cc1 [Compound 155]	100%
CON=C(C(=O)OC)c1ccccc1CON=C(c1cccc(OC(F)=Cc2ccccc2)c1)C(F)(F)F [Compound 102]	99%
CON=C(C(=O)OC)c1ccccc1CON=C(C)c1cccc(OC(F)=Cc2ccc(C)cc2)c1 [Compound 66]	100%

tested on: Pyricularia oryzae Carvara KA301; assay: not given; type: in vivo; conditions: Rice Blast; concentration 2 ppm

Compound	RCV (Fungicidal Activities, C.V.)
CO/N=C(/C(=O)OC)c1ccccc1CON=C(C)c1cccc(OC(F)=Cc2ccccc2)c1 [Compound 64]	100%
CCOc1ccc(C(=C(F)Oc2cccc(C=NOCc3ccccc3C(=NOC)C(=O)NC)c2)C(F)(F)F)cc1 [Compound 144]	88%
CON=C(C(=O)OC)c1ccccc1CON=C(c1cccc(OC(F)=Cc2ccccc2)c1)C(F)(F)F [Compound 102]	71%
CON=C(C(=O)OC)c1ccccc1CON=C(C)c1cccc(OC(F)=Cc2ccc(C)cc2)c1 [Compound 66]	100%

same assay, conditions: Rice Blast; concentration 10 ppm

Compound	RCV (Fungicidal Activities, C.V.)
COC=C(C(=O)OC)c1ccccc1CON=C(C)c1cccc(OC(F)=Cc2ccc(Cl)c(C)c2)c1 [Compound 52]	80%
CO/N=C(/C(=O)OC)c1ccccc1CON=C(C)c1cccc(OC(F)=Cc2ccccc2)c1 [Compound 64]	100%
CON=C(C(=O)OC)c1ccccc1CON=C(c1cccc(OC(F)=Cc2ccccc2)c1)C(F)(F)F [Compound 102]	86%
CON=C(C(=O)OC)c1ccccc1CON=C(C)c1cccc(OC(F)=Cc2ccc(C)cc2)c1 [Compound 66]	100%

same assay, conditions: Rice Blast; concentration 50 ppm

Compound	RCV (Fungicidal Activities, C.V.)
COC=C(C(=O)OC)c1ccccc1CON=Cc1cccc(OC(F)=C(c2ccc(C)cc2)C(F)(F)F)c1 [Compound 105]	0%
CNC(=O)C(=COC)c1ccccc1CON=C(C)c1cccc(OC(F)=Cc2ccc(OC)cc2)c1 [Compound 60]	100%
COC=C(C(=O)OC)c1ccccc1CON=C(C)c1cccc(OC(F)=Cc2ccc(Cl)c(C)c2)c1 [Compound 52]	97%
CO/N=C(/C(=O)OC)c1ccccc1CON=C(C)c1cccc(OC(F)=Cc2ccccc2)c1 [Compound 64]	100%
CCOc1ccc(C(=C(F)Oc2cccc(C=NOCc3ccccc3C(=NOC)C(=O)NC)c2)C(F)(F)F)cc1 [Compound 144]	96%
CCc1ccc(C(=C(F)Oc2cccc(C(C)=NOCc3ccccc3C(=COC)C(=O)OC)c2)C(F)(F)F)cc1 [Compound 155]	80%
CON=C(C(=O)OC)c1ccccc1CON=C(c1cccc(OC(F)=Cc2ccccc2)c1)C(F)(F)F [Compound 102]	99%
CON=C(C(=O)OC)c1ccccc1CON=C(C)c1cccc(OC(F)=Cc2ccc(C)cc2)c1 [Compound 66]	100%

tested on: Erysiphae graminis; assay: Fungicidal activity against Barley Powdery Mildew (BPM) disease; type: in vivo; conditions: Barley Powdery Mildew; concentration 2 ppm

Compound	BPM (Fungicidal Activities, C.V.)
COC=C(C(=O)OC)c1ccccc1CON=Cc1cccc(OC(F)=C(c2ccc(C)cc2)C(F)(F)F)c1 [Compound 105]	98%
CO/N=C(/C(=O)OC)c1ccccc1CON=C(C)c1cccc(OC(F)=Cc2ccccc2)c1 [Compound 64]	100%
CCOc1ccc(C(=C(F)Oc2cccc(C=NOCc3ccccc3C(=NOC)C(=O)NC)c2)C(F)(F)F)cc1 [Compound 144]	0%
CCc1ccc(C(=C(F)Oc2cccc(C(C)=NOCc3ccccc3C(=COC)C(=O)OC)c2)C(F)(F)F)cc1 [Compound 155]	95%
CON=C(C(=O)OC)c1ccccc1CON=C(c1cccc(OC(F)=Cc2ccccc2)c1)C(F)(F)F [Compound 102]	97%
CON=C(C(=O)OC)c1ccccc1CON=C(C)c1cccc(OC(F)=Cc2ccc(C)cc2)c1 [Compound 66]	100%

same assay, conditions: Barley Powdery Mildew; concentration 10 ppm

Compound	BPM (Fungicidal Activities, C.V.)
COC=C(C(=O)OC)c1ccccc1CON=Cc1cccc(OC(F)=C(c2ccc(C)cc2)C(F)(F)F)c1 [Compound 105]	99%
COC=C(C(=O)OC)c1ccccc1CON=C(C)c1cccc(OC(F)=Cc2ccc(Cl)c(C)c2)c1 [Compound 52]	100%
CO/N=C(/C(=O)OC)c1ccccc1CON=C(C)c1cccc(OC(F)=Cc2ccccc2)c1 [Compound 64]	100%
CCc1ccc(C(=C(F)Oc2cccc(C(C)=NOCc3ccccc3C(=COC)C(=O)OC)c2)C(F)(F)F)cc1 [Compound 155]	99%
CON=C(C(=O)OC)c1ccccc1CON=C(c1cccc(OC(F)=Cc2ccccc2)c1)C(F)(F)F [Compound 102]	100%
CON=C(C(=O)OC)c1ccccc1CON=C(C)c1cccc(OC(F)=Cc2ccc(C)cc2)c1 [Compound 66]	100%

same assay, conditions: Barley Powdery Mildew; concentration 50 ppm

Compound	BPM (Fungicidal Activities, C.V.)
COC=C(C(=O)OC)c1ccccc1CON=Cc1cccc(OC(F)=C(c2ccc(C)cc2)C(F)(F)F)c1 [Compound 105]	100%
CNC(=O)C(=COC)c1ccccc1CON=C(C)c1cccc(OC(F)=Cc2ccc(OC)cc2)c1 [Compound 60]	100%
COC=C(C(=O)OC)c1ccccc1CON=C(C)c1cccc(OC(F)=Cc2ccc(Cl)c(C)c2)c1 [Compound 52]	100%
CO/N=C(/C(=O)OC)c1ccccc1CON=C(C)c1cccc(OC(F)=Cc2ccccc2)c1 [Compound 64]	100%
CCOc1ccc(C(=C(F)Oc2cccc(C=NOCc3ccccc3C(=NOC)C(=O)NC)c2)C(F)(F)F)cc1 [Compound 144]	95%
CCc1ccc(C(=C(F)Oc2cccc(C(C)=NOCc3ccccc3C(=COC)C(=O)OC)c2)C(F)(F)F)cc1 [Compound 155]	100%
CON=C(C(=O)OC)c1ccccc1CON=C(c1cccc(OC(F)=Cc2ccccc2)c1)C(F)(F)F [Compound 102]	100%
CON=C(C(=O)OC)c1ccccc1CON=C(C)c1cccc(OC(F)=Cc2ccc(C)cc2)c1 [Compound 66]	100%

tested on: Phytophthora infestans; assay: not given; type: in vivo; conditions: Tomato Late Blight; concentration 2 ppm

Compound	TLB (Fungicidal Activities, C.V.)
CO/N=C(/C(=O)OC)c1ccccc1CON=C(C)c1cccc(OC(F)=Cc2ccccc2)c1 [Compound 64]	87%

same assay, conditions: Tomato Late Blight; concentration 10 ppm

Compound	TLB (Fungicidal Activities, C.V.)
CO/N=C(/C(=O)OC)c1ccccc1CON=C(C)c1cccc(OC(F)=Cc2ccccc2)c1 [Compound 64]	90%

same assay, conditions: Tomato Late Blight; concentration 50 ppm

Compound	TLB (Fungicidal Activities, C.V.)
COC=C(C(=O)OC)c1ccccc1CON=Cc1cccc(OC(F)=C(c2ccc(C)cc2)C(F)(F)F)c1 [Compound 105]	0%
CNC(=O)C(=COC)c1ccccc1CON=C(C)c1cccc(OC(F)=Cc2ccc(OC)cc2)c1 [Compound 60]	0%
COC=C(C(=O)OC)c1ccccc1CON=C(C)c1cccc(OC(F)=Cc2ccc(Cl)c(C)c2)c1 [Compound 52]	42%
CO/N=C(/C(=O)OC)c1ccccc1CON=C(C)c1cccc(OC(F)=Cc2ccccc2)c1 [Compound 64]	95%
CCOc1ccc(C(=C(F)Oc2cccc(C=NOCc3ccccc3C(=NOC)C(=O)NC)c2)C(F)(F)F)cc1 [Compound 144]	0%
CCc1ccc(C(=C(F)Oc2cccc(C(C)=NOCc3ccccc3C(=COC)C(=O)OC)c2)C(F)(F)F)cc1 [Compound 155]	6%
CON=C(C(=O)OC)c1ccccc1CON=C(c1cccc(OC(F)=Cc2ccccc2)c1)C(F)(F)F [Compound 102]	0%
CON=C(C(=O)OC)c1ccccc1CON=C(C)c1cccc(OC(F)=Cc2ccc(C)cc2)c1 [Compound 66]	0%
